Source: US9669016B2, “Antiparasitic effect of Bis[3,5-Bis(Benzylidene)-4-Oxo-1-Piperidinyl]amide Derivatives” (priority 2014, dated 2017)
Like-named read-outs stand apart in the source and are kept apart here.

Tests used:
[1] = test system: BALB/c intraperitoneal macrophages; assay: Viability assay (Alamar Blue) on peritoneal murine macrophages; assay type: cell-based; details: Mus musculus, Macrophage; read-out: Mammalian cells IC50 ± SD, Peritoneal Murine Macrophages
Method: (§1) Viability assay on mammalian cells and T. cruzi epimastigotes. The cytotoxicity and anti-trypanosomal activity of the NC compounds was tested in human Hs27 fibroblasts (ATCC CRL-1634), LLC-MK2 cells (ATCC CCL-7), RAW 264.7 murine macrophages (ATCC TIB71) (American Type Culture Collection-ATCC, Manassa, Va.), mice intraperitoneal macrophages and in epimastigote forms of T. cruzi Y strain using Alamar Blue assay (Invitrogen—Life Technology, Grand Island, N.Y.). The experiments were performed as described using a range of concentration of 500 μM to 1 nM.

[2] = test system: L. major intracellular amastigotes; assay: High-content imaging infectivity assay, L. major amastigote-infected macrophages; assay type: cell-based, Leishmania major; details: for most effective concentration against L. major intracellular amastigotes / IC50: 48 h treatment; for IC50: Leishmania major, Peritoneal macrophage, in Mus musculus, in BALB/c peritoneal macrophages; for percentage of infected macrophages vs 1% DMSO control: constraints 2, 5 and 8 or more amastigotes per macrophage; for effectiveness compared with positive control amphotericin B 5 μM: percentage of infected macrophages, NC901, NC884 at 5 μM
Method: In vitro infectivity experiments were carried out to determine the activity of compounds NC901, NC884, and NC2459 against L. major intracellular amastigotes. Intraperitoneal macrophages isolated from BALB/c mice were infected with L. major metacyclic promastigotes. After the parasites were allowed to establish infection for 48 hours, the compounds were added and incubated for an additional 48 hours. The compounds anti-leishmanial activity was evaluated using the BD Pathway Bioimager™. In the analysis several constraints were used, such as 2, 5, and 8 or more amastigotes per macrophage.
In vitro evaluation of the NC drug library on infectivity experiments by high-content imaging assay. Mice intraperitoneal macrophages and human osteoblasts were placed in a microplate and infected with the amastigote forms of L. major strain Friedlin clone V1 and T. cruzi Y strain respectably, followed by treatment with NC lead compounds (as shown in Table 1). Briefly, Image acquisition and analyses of the plates were carried out using the BD Pathway 855 high-resolution fluorescence bioimager system (BD Biosciences). Filter sets appropriate for the excitation and emission spectra of Draq5 were utilized. Images from […] (3×3 montage) were acquired per well with a 20× objective. To perform the host cell segmentation and counting of parasites, the BD AttoVision™ v1.6.2 Sub Object analysis was used. Draq5 creates a background, staining the host cell and parasite nucleus, but defining the cytoplasm as well, determining this way the amount of parasites within each mammalian cell. The host cell nucleus was excluded by size difference. Subsequently, the infection index was calculated based on the mean of these triplicate values by multiplying the percentage of infected cells and the constraints used in the HCIA assay that was of 2, 3, 5, and 8 parasites per cell.

[3] = test system: LLC-MK2 cells; assay: Viability assay (Alamar Blue) on LLC-MK2 cells; assay type: cell-based, Rhesus monkey; details: Macaca mulatta, read-out: Mammalian cells IC50 ± SD, LLC-MK2
Method: Rhesus monkey kidney epithelial cell LLC-MK2 (American Type Culture Collection-ATCC, Manassas, Va. # CCL-7), Hs-27 human fibroblasts (American Type Culture Collection-ATCC, Manassas, Va.), RAW 264.7 murine macrophages (American Type Culture Collection-ATCC, Manassas, Va.) U2-09 human osteoblasts (American Type Culture Collection-ATCC, Manassas, Va. # HTB-99) (American Type Culture Collection-ATCC, Manassas, Va.) cells were cultured in Dulbecco's Modified Eagle's Medium (DMEM), supplemented with 10% inactivated FBS, along with 1% of 10,000 units/ml penicillin and 10 mg/ml streptomycin in 0.9% sodium chloride. Intraperitoneal BALB/c mice macrophages were obtained and cultured in DMEM high-glucose, +L-glu, supplemented with 10% FBS (inactivated). The procedure was performed minimizing the distress and pain for the animals following the NIH guidance and animal protocol approved by UTEP's Institutional Animal Care and Use Committee (IACUC).
as §1
The statistical significance (p-value) of the compound's cytotoxicity was calculated using the General Linear Mixed Model Analysis. This analysis was used to test the linear effect of the logarithm of dose on the logit transformation of the percent survival. The IC50 was obtained as the exponent of the negative ratio of the y-intercept and the slope of the fitted regression line (SAS Software, Version 9.2). […] All experiments had statistical significance determined at p≦0.05(*), p≦0.01(**), and p≦0.001(***).

[4] = test system: BALB/c mice intraperitoneal macrophages; assay: Annexin V/PI assay on intraperitoneal macrophages; assay type: cell-based, mouse
Method: Apoptosis was evaluated using Alexa Fluor® 488 Annexin V/PI Apoptosis Kit (Initrogen™-Life technology, Grand Island, N.Y.). L. major promastigotes and BALB/c mice intraperitoneal macrophages were treated with each compound for 24 h. After exposure, the parasites (5×10^7) and macrophages (5×10^6) were harvested, washed and re-suspended with PBS. The Annexin V/PI staining of cells followed the manufacturer's instructions. Then the samples were analyzed with Beckman Coulter Fc500 flow cytometer (Beckman Coulter, USA). The results were expressed as the number of annexin positive cells per thousand cells counted.

[5] = test system: T. cruzi epimastigotes; assay: Viability assay (Alamar Blue) on T. cruzi epimastigotes; assay type: cell-based; details: Trypanosoma cruzi
Method: as §1

[6] = test system: Leishmania major promastigotes; assay: Luciferase survival assay on L. major promastigotes; assay type: cell-based
Method: Evaluation of the NC library activity against Leishmania major. The NC library (136 compounds) was screened using firefly luciferase-expressing L. major promastigotes referred to as Lmj-FV1-LUC-TK (L. major strain Friedlin (MHOM/JL/80/Friedlin) clone V1) engineered to express luciferase following integration of the construct pIR1SAT-LUC(a)-TK(b) (strain B5113) in the rRNA locus (S. M. Hickerson and S. M. Beverley, unpublished data). Enones (stock solutions in DMSO) were diluted (1 nM to 500 μM, in a final 1% DMSO) and added (1 μl per well) to 96-well microplates using an Eppendorf epMotion 5070 automated pipetting system. Promastigotes (10^6/well) were added, and parasite survival was assessed by luciferase activity with the substrate 5′-fluoroluciferin (ONE-Glo Luciferase Assay System, Promega) after 96-h incubation at 28° C., using a luminometer (Luminoskan, Thermo). The bioluminescent intensity was a direct measure of the survival of parasites. This was determined by comparing bioluminescent intensity of L. major parasites live/dead with MTT assay and cell counting. The primary compound screens were performed as single wells.

[7] = same concentrations as in L. major promastigotes, 24 h
[8] = 96 h incubation, read-out: T. cruzi Epimastigotes EC50
[9] = 96 hour incubation, read-out: EC50, T. cruzi epimastigotes
[10] = 96 h, read-out: estimated EC50, L. major promastigotes
[11] = 96 h incubation, read-out: L. major Promastigotes EC50

Structure (SMILES) | IC50 [1] | most effective concentration against L. major intracellular amastigotes [2] | IC50 [2] | percentage of infected macrophages vs 1% DMSO control [2] | effectiveness compared with positive control amphotericin B 5 μM [2] | IC50 [3] | annexin V positive cells in macrophages [4, 7] | EC50 [5, 8] | EC50 [5, 9] | EC50 [6, 10] | EC50 [6, 11] | annexin V positive cells in macrophages [4] | EC50 ([6]; after a 96 hour treatment, read-out: estimated EC50, L. major promastigotes)
CN(C)CC1CCC(CN(C)C)C1=O (stereo not drawn) [NC884] | 7670 ± 310 nM | 5 µM | 937 ± 130 nM | significant decrease in the percentage of infected cells | not as effective as the positive control amphotericin B | 15100 ± 330 nM | No effect | 475 nM | 475 nM | 1120 nM | 1120 nM |  | 
CN(C)CC1CCCC(CN(C)C)C1=O (stereo not drawn) [NC901] | 7030 ± 420 nM | 5 µM | 1870 ± 200 nM | significant decrease in the percentage of infected cells | not as effective as the positive control amphotericin B | 8020 ± 250 nM |  | 468 nM | 468 nM | 453 nM | 450 nM | No effect | 
O=C1/C(=C/c2ccccc2)CN(C(=O)C(=O)N2C/C(=C\c3ccccc3)C(=O)/C(=C/c3ccccc3)C2)C/C1=C\c1ccccc1 [NC2459] | 5450 ± 360 nM | 1.25 µM | 625 ± 110 nM | significant decrease in the percentage of infected cells | significantly more effective | 2000 ± 93 nM | No effect | 20 nM | 20 nM |  | 20 nM |  | 20 nM
